In assay [1] the test system is Fibroblasts (primary human lung and dermal, HFL-1, 3T3 etc). The assay can be described thus: Cell proliferation assay (BrdU incorporation). The class given is cell-based. The conditions noted are these: HFL1, stimulant (LPA, TGFb, serum etc), 50% inhibition of the increase of BrdU incorporation. Here is the method: Assay of Inhibitory Effect on Cell Proliferation (BrdU Incorporation)
Fibroblasts (primary human lung and dermal, HFL-1, 3T3 etc) were plated on a 96-well plate and serum starved for 24-48 hours. The media were then exchanged for media containing stimulants (LPA, TGFb, serum etc) and cultured further for 16-24 hours before BrdU addition. After culturing for another 8 hours, cells were washed with PBS and the amount of BrdU incorporated into the cells was assayed by absorbance at 450 nm using the Cell proliferation ELISA system (RPN250, Amersham LIFE SCIENCE). The difference between the amount of BrdU incorporated in the stimulant-added well and the amount of BrdU incorporated in the well containing no stimulant represented the amount of BrdU incorporation accelerated by stimulant. The increase of BrdU incorporation without the addition of test compounds was set as 100% and the concentration of compound with 50% inhibition in the increase of BrdU incorporation (IC50 value) was determined. The test compounds were added 0-30 min before stimulant addition.
Compounds of some embodiments were prepared according to synthetic methods described herein and assay data obtained for IC50 for BrdU inhibition. The assay data obtained is presented in Table 3, in which A=less than 50 μM, B=greater than or equal to 50 μM and less than or equal to 200 μM; and C=greater than 200 μM.

Assay [2] deals with TGF-b induced Endothelin-1 production. Description: ET-1 assay: inhibitory effect on TGF-b induced endothelin-1 production. It is filed as cell-based. As to conditions: Homo sapiens, Fibroblast; fibroblasts, stimulant (TGFb, serum, LPA etc), ET-1 in media by ELISA, 4-parameter fit. Summed up: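 Fibroblasts (primary human lung/dermal, HFL-1, 3T3) serum-starved 0-48 h, preincubated ~30 min with compound, then stimulated (TGFb, serum or LPA) for 16-48 h. Secreted ET-1 measured by ELISA; EC50 from 4-parameter logistic fit, with CC50 from ATPlite in the same wells.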

In assay [1], `CCOc1ccc(-n2cc(-c3cnn(C)c3)c(Cl)cc2=O)c(C)c1` [Compound 538] had an IC50 of 50 to 200 µM.

Take `CCOc1ccc(-n2cc(-c3cn[nH]c3)c3ccn(C)c3c2=O)c(C)c1` [Compound 601]: the EC50 in assay [2] was less than 50 µM. The compound also displayed an IC50 in assay [1] of less than 50 µM.

As to `CCn1nc2c(-c3cnn(C)c3)cn(-c3ccc(OCCOC)cc3)c(=O)c2n1` [Compound 688], the EC50 in assay [2] lay within 50 to 200 µM. Further, in assay [1], the IC50 is 50 to 200 µM.

Consider `CCOc1ccc(-n2cc(-c3ccc(F)cc3)c(OC)cc2=O)c(C)c1` [Compound 119], for which the EC50 in assay [2] was less than 50 µM. This compound also showed an IC50 in assay [1] of less than 50 µM.

Consider `O=c1c2[nH]ccc2ccn1-c1ccc(OC(F)(F)F)cc1` [Compound 609], for which, in assay [2], the EC50 was less than 50 µM. For the same compound, in assay [1], the IC50 is less than 50 µM.

As to `Cn1cc(-c2cn(-c3ccc(OC(F)(F)F)cc3)c(=O)c3c2ccn3C2CC2)cn1` [Compound 649], the EC50 in assay [2] is less than 50 µM. This compound returned an IC50 in assay [1] of 50 to 200 µM.

In assay [2], `Cc1cc(=O)n(-c2ccc(OC(F)(F)F)cc2)cc1-c1c(C)nn(C)c1C` [Compound 237] came in with an EC50 of 50 to 200 µM. Further, the IC50 in assay [1] was less than 50 µM.

With `COc1cccc(-n2cc(C(F)(F)F)ccc2=O)c1` [Compound 276], in assay [2], the EC50 was more than 200 µM. In addition, in assay [1], the IC50 was more than 200 µM.

With `Cn1cc(-c2cn(-c3ccc(OC(F)(F)F)cc3)c(=O)cc2NCc2ccc(F)cc2)cn1` [Compound 407], in assay [2], the EC50 was less than 50 µM. The compound further registered an IC50 in assay [1] of less than 50 µM.

Turning to `CCOc1ccc(-n2cc(-c3ccc(F)cc3)c(OCCOC)cc2=O)c(C)c1` [Compound 551], in assay [1], the IC50 is less than 50 µM.

Consider `Cc1cc(=O)[nH]cc1-c1ccc2c(c1)N(C)C(=O)CO2` [Compound 662], for which the IC50 in assay [1] is more than 200 µM.

As for `CCn1c(=O)oc2cc(-c3c[nH]c(=O)cc3C)ccc21` [Compound 564], in assay [1], the IC50 was less than 50 µM.

As for `CCn1cnc2c(=O)n(-c3ccc(OC(F)(F)F)cc3)cc(-c3cn[nH]c3)c21` [Compound 640], in assay [1], the IC50 was more than 200 µM.

In the case of `CCOc1ccc(-n2cc(-c3cn(C)nc3C(F)(F)F)c(C)cc2=O)c(C)c1` [Compound 239], in assay [1], the IC50 is less than 50 µM.

In assay [1], `CCn1ncc2c(-c3cnn(C)c3)cn(-c3ccc(OC(F)(F)F)cc3)c(=O)c21` [Compound 658] had an IC50 of more than 200 µM.

In the case of `CCOc1ccc(Oc2cc(=O)n(-c3ccc(OC(F)(F)F)cc3)cc2-c2cnn(C)c2)cc1Cl` [Compound 155], in assay [1], the IC50 was less than 50 µM.

In assay [1], `Cn1cc(-c2cn(-c3ccc(OC(F)(F)F)cc3)c(=O)c3nsnc23)cn1` [Compound 41] came in with an IC50 of less than 50 µM.

`Cn1cc(-c2cn(-c3ccc(OC(F)(F)F)cc3)c(=O)cc2NCc2cccnn2)cn1` [Compound 664]: the IC50 in assay [1] is less than 50 µM.

Compound `O=c1ccc(-c2ccccc2)cn1-c1ccccc1Cl` [Compound 302] returned an EC50 in assay [2] of 50 to 200 µM.

In assay [2], `Cn1cc(-c2cn(-c3ccc(OC(F)(F)F)cc3)c(=O)cc2OCCN2CCCC2=O)cn1` [Compound 146] yielded an EC50 of more than 200 µM.

Consider `O=c1ccc(C(F)(F)F)cn1-c1ccc(OC(F)(F)F)cc1` [Compound 275], for which the EC50 in assay [2] was more than 200 µM.

In the case of `O=c1c2c(c(-c3ccc(F)cc3)cn1-c1ccc(OC(F)(F)F)cc1)CCCC2` [Compound 32], the EC50 in assay [2] was more than 200 µM.

Regarding `CCOc1ccc(-n2cc(-c3cccc(F)c3)c(C)cc2=O)c(C)c1` [Compound 193], the EC50 in assay [2] is 50 to 200 µM.

Take `CCOc1ccc(-c2c(-c3ccc(F)cc3)c(=O)c2=O)c(C)c1` [Compound 667]: the EC50 in assay [2] is less than 50 µM.

Turning to `C#Cc1ccc(=O)n(-c2ccccc2)c1` [Compound 287], the EC50 in assay [2] was more than 200 µM.

In assay [2], `CCCCC(=O)Nc1cc(=O)n(-c2ccc(OC(F)(F)F)cc2)cc1-c1ccc(F)cc1` [Compound 107] had an EC50 of more than 200 µM.

In assay [2], `O=c1ccc(-c2cccc(Cl)c2)cn1-c1ccccc1` [Compound 313] registered an EC50 of 50 to 200 µM.

In the case of `Cc1cc(=O)n(-c2ccc3c(c2)OCCO3)cc1-c1ccc(F)cc1` [Compound 182], in assay [2], the EC50 is more than 200 µM.

In assay [2], `Cc1cc(=O)n(-c2cccc(OC(F)(F)F)c2)cc1-c1ccccc1` [Compound 166] yielded an EC50 of less than 50 µM.
